By Ki is commonly meant a measure of affinity in units of concentration, obtained from inhibition or displacement.

“Also recorded” adds a separate entry of the source. Read-outs that look alike come from different tables or passages of the source.

For data set [1], the target named is LAR-oxidized (Leukocyte common antigen-related, LAR) (Homo sapiens, UniProt P10586). Description: RPTP assay, standard assay conditions: phosphatase activity of oxidized LAR (DiFMUP substrate, TCEP reduction). The data set is classed as biochemical. As to the method: (§1) Leukocyte common antigen-related (LAR) and PTPσ were used as illustrative type IIa RPTPs. Illustratively, purified LAR (100 nM) was mixed with H2O2 (2 mM) in phosphatase assay buffer (50 mM HEPES, pH 7.0, 100 mM NaCl, 0.1% BSA) at room temperature for 10 minutes. Excess H2O2 was removed with a Zeba™ Desalting Column (Thermo Scientific) equilibrated in the assay buffer without any reducing agent. Phosphatase activity was measured for each protein sample using 6,8-difluoro-4-methylumbiliferyl phosphate (DiFMUP) as the substrate, with or without 5 mM Tris(2-carboxyethyl)phosphine hydrochloride (TCEP). Activity of the oxidized sample was compared to that of the untreated (unoxidized) sample in the presence of 5 mM TCEP.
Sequence of LAR-oxidized (Leukocyte common antigen-related, LAR) (P10586 30-1907): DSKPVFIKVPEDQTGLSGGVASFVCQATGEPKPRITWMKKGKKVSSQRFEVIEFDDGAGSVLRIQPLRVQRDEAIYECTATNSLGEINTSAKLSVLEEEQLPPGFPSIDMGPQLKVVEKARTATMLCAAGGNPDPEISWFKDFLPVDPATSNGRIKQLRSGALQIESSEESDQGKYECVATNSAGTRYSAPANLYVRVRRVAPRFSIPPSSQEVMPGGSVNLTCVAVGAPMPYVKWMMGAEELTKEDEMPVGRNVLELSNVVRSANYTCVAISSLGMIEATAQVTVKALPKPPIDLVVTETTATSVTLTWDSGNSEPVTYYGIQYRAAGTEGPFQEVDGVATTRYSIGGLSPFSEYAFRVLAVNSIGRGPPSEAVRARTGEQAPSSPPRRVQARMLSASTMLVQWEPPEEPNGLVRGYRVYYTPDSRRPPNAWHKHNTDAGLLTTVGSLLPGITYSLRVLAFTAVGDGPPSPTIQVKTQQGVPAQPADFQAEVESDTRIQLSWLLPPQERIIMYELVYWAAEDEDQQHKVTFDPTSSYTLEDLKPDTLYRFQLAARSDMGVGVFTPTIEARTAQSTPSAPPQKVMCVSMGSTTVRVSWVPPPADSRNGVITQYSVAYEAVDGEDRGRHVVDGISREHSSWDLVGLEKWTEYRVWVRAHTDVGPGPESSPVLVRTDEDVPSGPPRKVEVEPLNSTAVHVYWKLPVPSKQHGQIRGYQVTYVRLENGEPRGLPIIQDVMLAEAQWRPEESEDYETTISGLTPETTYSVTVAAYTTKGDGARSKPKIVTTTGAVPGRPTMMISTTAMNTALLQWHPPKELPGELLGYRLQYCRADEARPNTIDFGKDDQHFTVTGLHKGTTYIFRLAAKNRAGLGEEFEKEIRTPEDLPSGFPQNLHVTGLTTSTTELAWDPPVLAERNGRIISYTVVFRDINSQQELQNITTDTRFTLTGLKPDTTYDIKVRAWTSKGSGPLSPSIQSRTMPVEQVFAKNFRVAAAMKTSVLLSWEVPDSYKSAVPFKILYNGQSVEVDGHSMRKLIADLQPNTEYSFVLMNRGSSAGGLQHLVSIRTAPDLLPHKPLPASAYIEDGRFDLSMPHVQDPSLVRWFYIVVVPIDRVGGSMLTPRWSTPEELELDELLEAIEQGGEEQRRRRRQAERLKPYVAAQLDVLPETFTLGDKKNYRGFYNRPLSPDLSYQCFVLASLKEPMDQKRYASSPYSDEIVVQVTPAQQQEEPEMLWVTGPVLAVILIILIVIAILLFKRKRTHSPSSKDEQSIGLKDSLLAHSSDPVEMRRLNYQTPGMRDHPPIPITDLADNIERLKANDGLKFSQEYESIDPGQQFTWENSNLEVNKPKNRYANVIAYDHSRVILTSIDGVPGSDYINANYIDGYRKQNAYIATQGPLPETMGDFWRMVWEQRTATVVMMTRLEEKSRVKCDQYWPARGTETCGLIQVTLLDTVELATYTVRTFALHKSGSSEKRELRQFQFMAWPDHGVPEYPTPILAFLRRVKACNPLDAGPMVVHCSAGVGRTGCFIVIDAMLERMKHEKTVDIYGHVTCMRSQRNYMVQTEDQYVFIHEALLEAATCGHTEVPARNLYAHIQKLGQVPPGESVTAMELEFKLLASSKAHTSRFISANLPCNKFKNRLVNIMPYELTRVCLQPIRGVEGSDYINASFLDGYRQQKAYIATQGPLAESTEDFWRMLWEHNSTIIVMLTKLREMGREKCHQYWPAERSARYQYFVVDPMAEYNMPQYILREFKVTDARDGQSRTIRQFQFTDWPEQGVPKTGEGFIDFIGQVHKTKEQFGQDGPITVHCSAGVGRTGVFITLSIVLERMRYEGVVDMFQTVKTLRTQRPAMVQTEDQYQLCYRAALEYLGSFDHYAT
(§2) LAR-OX (10 nM) was incubated with compounds (0.1 mM) for varying lengths of time and the phosphatase activity was monitored using DiFMUP as substrate following reduction of the PTP with TCEP (5 mM). TCEP was not removed before adding DiFMUP. DiFMUP was added right after TCEP and the activity was followed continuously for 60 minutes. […] The above protocol was used to test the activity of other phosphatases (PTP1B, PTPσ, SHP2, PTPα, PTEN, and JSP1).

A further data set has as its system C2C12 cells. As to the kind of experiment: Cell vitality under the MuSK phosphorylation experimental condition. The data set is classed as cell-based, mouse. Conditions: C2C12, experimental condition of FIG. 3.
Data set [2] concerns MuSK phosphorylation (LAR dephosphorylating MuSK) in C2C12 myotubes. As to the kind of experiment: MuSK tyrosine phosphorylation in agrin-stimulated C2C12 myotubes (anti-pTyr immunoprecipitation, anti-MuSK blot). The data set is classed as cell-based, mouse. As to the method: C2C12 cells serum starved (8 hours) and then treated with CL-37 for 1 hour. Following which, cells were stimulated with Agrin (10 nM) for varying lengths of time (0-60 minutes). The cells were lysed and lysates were used to immunoprecipitate tyrosine phosphorylated proteins using 4G10® (05-321 from EMD Milliooire Corp. and PY20 (such as ab10321 fromabcam Plc) antibodies for 90 minutes at 4 C. The immunocomplexes were washed and resolved on SDS gels and immunoblotted using anti-MUSK antibody. For the immunoprecipitation experiments, 1 mg of total cell lysate was incubated with anti-pTyr antibodies at 4° C. for 90 minutes. The interacting protein complexes were immunoprecipitated after incubating the lysate-antibody mixture with protein A/G Sepharose® at 4° C. for 30 minutes. After immunoprecipitation, Sepharose® beads were washed three times at 4° C. with wash buffer (PBS, pH 7.4, 0.05% BSA, 0.05% Tween®-20 and protease inhibitors). Complexes were separated by SDS-PAGE and immunoblotted using anti-MUSK antibody.

Another data set concerns the target PTPσ-oxidized (Homo sapiens, UniProt Q13332). As to the kind of experiment: RPTP assay, standard assay conditions: phosphatase activity of oxidized PTPσ. The data set is classed as biochemical. As to the method:
as §1, §2

Data set [3] in a line: Stability of difluoroborate compounds using 19F and 11B NMR. The conditions noted are these: acetonitrile-d3 alone and 80% acetonitrile-d3/20% D2O; up to seven days; room temperature.
Where [4] appears, read: Table 2, Formula III, R1 and R2 para to boron, read-out: LAR-ox Ki.
The mark [5] stands for this setting: FIG. 4, assay similar to FIG. 3, agrin stimulation.
Where [6] appears, read: FIG. 1, oxidized form, 0.1 to 100 μM compound.
Where [7] appears, read: Table 1, Formula II, potassium salt, R1 and R2 para to boron, read-out: LAR-ox Ki.
[8] abbreviates: Table 3, Formula IV, read-out: LAR-ox Ki.

Sequence of PTPσ-oxidized (Q13332 30-1948): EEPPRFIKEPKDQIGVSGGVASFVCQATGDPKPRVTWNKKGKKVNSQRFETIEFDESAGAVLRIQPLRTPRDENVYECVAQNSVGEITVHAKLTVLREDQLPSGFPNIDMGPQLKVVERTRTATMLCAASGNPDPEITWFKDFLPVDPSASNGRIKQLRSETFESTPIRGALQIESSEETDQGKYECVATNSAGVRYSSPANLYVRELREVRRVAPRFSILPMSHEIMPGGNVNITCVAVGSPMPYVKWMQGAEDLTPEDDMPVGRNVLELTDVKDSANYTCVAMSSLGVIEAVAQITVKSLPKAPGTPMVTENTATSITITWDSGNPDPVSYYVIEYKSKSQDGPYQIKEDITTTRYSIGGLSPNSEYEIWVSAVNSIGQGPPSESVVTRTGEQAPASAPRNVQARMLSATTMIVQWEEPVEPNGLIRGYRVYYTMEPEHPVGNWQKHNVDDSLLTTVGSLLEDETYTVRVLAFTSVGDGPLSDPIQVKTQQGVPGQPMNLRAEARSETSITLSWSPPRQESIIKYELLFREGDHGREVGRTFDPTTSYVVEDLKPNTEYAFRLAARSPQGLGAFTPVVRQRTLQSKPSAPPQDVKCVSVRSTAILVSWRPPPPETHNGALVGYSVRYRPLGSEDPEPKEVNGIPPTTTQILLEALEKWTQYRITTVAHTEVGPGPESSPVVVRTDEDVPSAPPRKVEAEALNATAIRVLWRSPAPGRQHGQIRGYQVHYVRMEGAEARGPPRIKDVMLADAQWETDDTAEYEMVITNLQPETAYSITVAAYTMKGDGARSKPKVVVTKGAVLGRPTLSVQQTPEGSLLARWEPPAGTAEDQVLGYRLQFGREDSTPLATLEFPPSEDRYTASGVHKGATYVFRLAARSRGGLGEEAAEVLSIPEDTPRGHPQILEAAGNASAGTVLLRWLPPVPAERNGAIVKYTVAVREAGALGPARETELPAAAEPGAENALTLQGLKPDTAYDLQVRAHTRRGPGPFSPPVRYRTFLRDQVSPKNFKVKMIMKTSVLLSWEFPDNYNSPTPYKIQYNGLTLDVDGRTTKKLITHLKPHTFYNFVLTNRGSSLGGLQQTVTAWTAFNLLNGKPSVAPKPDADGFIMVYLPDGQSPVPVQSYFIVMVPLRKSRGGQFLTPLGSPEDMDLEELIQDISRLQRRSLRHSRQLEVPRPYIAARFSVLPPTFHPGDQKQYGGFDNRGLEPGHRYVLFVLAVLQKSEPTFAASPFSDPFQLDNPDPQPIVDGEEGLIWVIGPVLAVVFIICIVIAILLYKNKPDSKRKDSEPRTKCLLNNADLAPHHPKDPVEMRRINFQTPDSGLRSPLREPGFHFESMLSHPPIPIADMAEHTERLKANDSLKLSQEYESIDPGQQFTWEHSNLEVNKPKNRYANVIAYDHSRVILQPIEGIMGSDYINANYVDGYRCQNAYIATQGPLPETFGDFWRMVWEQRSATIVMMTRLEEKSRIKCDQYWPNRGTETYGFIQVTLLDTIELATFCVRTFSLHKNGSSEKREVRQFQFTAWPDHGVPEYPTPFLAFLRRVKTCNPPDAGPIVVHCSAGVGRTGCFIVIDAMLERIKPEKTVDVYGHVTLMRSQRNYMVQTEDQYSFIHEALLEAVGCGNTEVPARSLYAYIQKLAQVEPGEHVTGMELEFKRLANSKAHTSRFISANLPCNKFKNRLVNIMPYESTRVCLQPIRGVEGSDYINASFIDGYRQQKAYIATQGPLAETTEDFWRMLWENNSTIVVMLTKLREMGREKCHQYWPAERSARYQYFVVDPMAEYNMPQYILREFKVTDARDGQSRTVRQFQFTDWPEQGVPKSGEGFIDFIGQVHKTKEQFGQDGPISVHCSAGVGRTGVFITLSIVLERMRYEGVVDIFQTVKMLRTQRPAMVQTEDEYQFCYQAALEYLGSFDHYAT

In the case of `OB(c1ccccc1)c1ccccc1` [CL-30], the Ki in data set [1] (setting [4]) came out at 20 µM.
`F[B-](F)(c1ccccc1)c1ccccc1` [CL-37]: in the data set with C2C12 cells, the “effect on cell vitality” value is listed as “did not exhibit an adverse effect on cell vitality”. The “phosphorylation level of MuSK versus control” value in data set [2] (FIG. 3, CL-37 5 μM, 1 hour pretreatment, agrin 10 nM, 0-60 minutes) is reported as “significantly higher than the control; also recorded: inhibits LAR from dephosphorylating MuSK”; in data set [2] (setting [5]), “higher phosphorylation; also recorded: enhance the phosphorylation level of MUSK”. In addition, on PTPσ-oxidized (setting [6]), the “phosphatase activity of PTP-sigma (inhibition)” value was “most actively inhibited”. Besides, the inhibitory constant (Ki) was found to be 4 µM on PTPσ-oxidized (read-out: PTPσ-oxidized Ki) and 5 µM in data set [1] (setting [7]). In data set [1] (setting [6]), the “phosphatase activity of LAR (inhibition)” value was “most actively inhibited”.
For `C=CB(O)c1ccccc1` [CL-49], the Ki in data set [1] (read-out: LAR-oxidized Ki) is more than 1000 µM.
Regarding `COc1ccc([B-](F)(F)c2ccc(OC)cc2)cc1` [CL-60], the Ki in data set [1] (setting [7]) and in data set [1] (read-out: LAR-oxidized Ki) was more than 1000 µM each time.
For `F[B-](F)(c1ccc(Cl)cc1)c1ccc(Cl)cc1` [CL-61], the Ki in data set [1] (setting [7]) is 4 µM.
The same measure, in the same setting: the value for `Fc1ccc([B-](F)(F)c2ccc(F)cc2)cc1` [CL-65] was 4 µM.
On to `F[B-](F)(F)c1ccc(-c2ccccc2)cc1` [CL-70], for which, in data set [1] (read-out: LAR-oxidized Ki), the inhibition constant (Ki) is more than 1000 µM.
For the molecule `OB(c1ccc(F)cc1)c1ccc(-c2ccccc2)cc1` [CL-73-2], in data set [2] (setting [5]), the “phosphorylation level of MuSK versus control” value was “higher phosphorylation; also recorded: enhance the phosphorylation level of MUSK”. In addition, the inhibitory constant (Ki) in data set [1] (setting [4]) amounted to 1 µM.
In the case of `Fc1ccc([B-](F)(F)c2ccc(-c3ccccc3)cc2)cc1` [CL-76], the “phosphorylation level of MuSK versus control” value in data set [2] (setting [5]) was “higher phosphorylation; also recorded: enhance the phosphorylation level of MUSK”. Moreover, the Ki in data set [1] (setting [7]) and in data set [1] (read-out: LAR-oxidized Ki) was 1 µM in each case.
In the case of `F[B-](F)(c1ccc(Cl)cc1)c1ccc(-c2ccccc2)cc1` [CL-83], in data set [3], the “hydrolysis or degradation by 19F and 11B NMR” value is “no hydrolysis or degradation”.
With `OB1OCc2ccccc21` [Compound B-1], the inhibition constant Ki (on PTPσ-oxidized; in data set [1] (read-out: LAR-oxidized Ki)) was more than 1000 µM in each case.
As to `Nc1ccc2c(c1)COB2O` [Compound B-2], the inhibitory constant (Ki) (at PTPσ-oxidized (read-out: PTPσ-oxidized Ki); in data set [1] (read-out: LAR-oxidized Ki)) was more than 1000 µM each time.
Regarding `OB1OCCc2cc(F)ccc21` [Compound B-5], the inhibition constant (Ki) (on PTPσ-oxidized (read-out: PTPσ-oxidized Ki); in data set [1] (setting [8]); in data set [1] (read-out: LAR-oxidized Ki)) was more than 1000 µM throughout.
With `OB1OCc2cc(F)ccc21` [Compound B-7], the inhibitory constant (Ki) (on PTPσ-oxidized (read-out: PTPσ-oxidized Ki); in data set [1] (read-out: LAR-oxidized Ki)) was more than 1000 µM in each case.
In the case of `Nc1ccc2c(c1)B(O)OCC2` [Compound B-14], the inhibition constant (Ki) was 100 µM at PTPσ-oxidized (read-out: PTPσ-oxidized Ki) and 57 µM in data set [1] (setting [8]).
Regarding `OB1OCCc2ccccc21` [Compound S-4], the Ki in data set [1] (setting [8]) is 500 µM.
As for `O=C(Nc1ccc2c(c1)B(O)OCC2)c1ccc(F)cc1` [Compound S-6], the Ki in data set [1] (setting [8]) and in data set [1] (read-out: LAR-oxidized Ki) was more than 1000 µM throughout.

The record behind these values is patent US10973835B2, “Boron-containing small molecules for inhibiting activity of a receptor-like protein tyrosine phosphatase” (The Penn State Research Foundation, priority 2017, dated 2021).
